Laboratory results: patent US20080057529A1, “Method for Identifying Histone Deacetylase Inhibitors” (priority 2003, published 2008)

How the values were obtained:
clone 1.17 cells = experiment: Growth inhibition, CYTOSTAR 14C-thymidine uptake; assay type: cell-based; conditions: Homo sapiens, 48 h, read-out: ^14C-thymidine EC50
Method: Cells were seeded in a CYTOSTAR-T plate at about 7000 to 10000 cells per well in 100 μL of complete DMEM and incubated 4 hours at 37° C., 5% CO2. Next, 25 μL per well of HDAC inhibitor or DMSO (vehicle control) 5× solutions in complete DMEM was added to the wells along with 5 μL per well of ^14C-thymidine diluted 1:3 in H2O (1.65 μL of thymidine per well, 55 mCi/mmol; 225 μCi/mg; 50 μCi/mL (10 μM final concentration) and incubated at 37° C., 5% CO2. Incorporation of ^14C-thymidine was monitored after 24, 48, and 72 hours by reading the plate in a Packard Instruments TOP-COUNT (CYTOSTAR ^14C method).

p21 minimal promoter = experiment: Transient transfection of HeLa cells with p21m-BLA reporter plasmid, Bla staining (blue cells); assay type: cell-based, human; conditions: for Bla staining at 60 min. / fold-ind. at 60 min. (Bla): Table 6; for fold-ind. at 60 min. (Bla) / fold-ind. at 15 min. (Bla): vs DMSO; for Bla staining at 15 min / fold-ind. at 15 min. (Bla): Table 7 (repeat)
Method: (§1) The p21m-BLA reporter plasmid was tested in transient transfection experiments of HeLa cells to evaluate the responsiveness of the minimal p21 promoter and the Bla reporter system to known HDAC inhibitors. In the first two transfection experiments, HeLa cells were transfected with 1 or 2 μg of Bla reporter plasmid containing either p21 minimal promoter (p21m-BLA) or CMV promoter (CMV-BLA) and 0.1 μg of pCMV-Luc or pRSV-Luc control plasmids. Different DNA-FUGENE transfection reagent ratios were tested (FUGENE is available from Roche Applied Science, Indianapolis, Ind.). […] Data are summarized below in Tables 1 and 2.
The percentage of β-lactamase-positive cells increased with time independent of the presence of HDAC inhibitors and was constantly higher with p21m-BLA than with pCMV-BLA.
In light of the above, the lack of apparent Bla activation in the above transfection experiments might have been due to the high sensitivity of the method. Therefore, transient transfections in which an accurate titration of the reporter plasmid DNA were performed. The titration of the reporter plasmid included using amounts lower than was used above. […] The transient transfections were repeated and the result confirmed (Table 7).

HeLa cells = conditions: saturating amounts, after 48 hours; cited from earlier work
CMV promoter = experiment: Luc activity of co-transfected pCMV-Luc control plasmid in HeLa cells; assay type: cell-based, human; conditions: 400 nM, 12 hours
Method: as §1

RSV promoter = experiment: Luc activity of co-transfected pRSV-Luc control plasmid in HeLa cells; assay type: cell-based, human; conditions: Table 2, 400 nM, 12 hours
Method: as §1

[1] = Table 3, 2 μg p21m-BLA + 0.1 μg pCMV-Luc, 6 hr treatment, TSA 300 nM, Apicidin 1 μM
[2] = Table 3, 2 μg p21m-BLA + 0.1 μg pCMV-Luc, 12 hr treatment, TSA 300 nM, Apicidin 1 μM
[3] = Table 3, 2 μg p21m-BLA + 0.1 μg pCMV-Luc, 24 hr treatment, TSA 300 nM, Apicidin 1 μM
[4] = Apicidin 1 μM, p21m-BLA 0 μg DNA
[5] = Apicidin 1 μM, p21m-BLA 0.02 μg DNA
[6] = Apicidin 1 μM, p21m-BLA 0.05 μg DNA
[7] = Apicidin 1 μM, p21m-BLA 0.1 μg DNA
[8] = Apicidin 1 μM, p21m-BLA 0.2 μg DNA
[9] = Apicidin 1 μM, p21m-BLA 0.5 μg DNA

CCC(=O)CCCCC[C@@H]1NC(=O)[C@H]2CCCCN2C(=O)[C@H]([C@@H](C)CC)NC(=O)[C@H](Cc2cn(OC)c3ccccc23)NC1=O [Apicidin]
EC50 (clone 1.17 cells): 410 nM
induction of β-lactamase activity (p21 minimal promoter; Apicidin 1 μM, only with the lowest DNA amounts): 3- to 5 fold
% Blue cells (p21 minimal promoter; [1]): 6%
% Blue cells (p21 minimal promoter; [2]): 10%
% Blue cells (p21 minimal promoter; [3]): 25%
Bla staining at 60 min. (p21 minimal promoter; [4]): 0%
Bla staining at 60 min. (p21 minimal promoter; [5]): 2-3%
fold-ind. at 60 min. (Bla) (p21 minimal promoter; [5]): 3-4 fold
Bla staining at 60 min. (p21 minimal promoter; [6]): 10-15%
fold-ind. at 60 min. (Bla) (p21 minimal promoter; [6]): 5 fold
Bla staining at 60 min. (p21 minimal promoter; [7]): 25-30%
fold-ind. at 60 min. (Bla) (p21 minimal promoter; [7]): 2 fold
Bla staining at 60 min. (p21 minimal promoter; [8]): 35-40%
fold-ind. at 60 min. (Bla) (p21 minimal promoter; [8]): 2 fold
Bla staining at 60 min. (p21 minimal promoter; [9]): 50%
fold-ind. at 60 min. (Bla) (p21 minimal promoter; [9]): 1.25 fold
Bla staining at 15 min (p21 minimal promoter; [4]): 0%
Bla staining at 15 min (p21 minimal promoter; [5]): 6-10%
fold-ind. at 15 min. (Bla) (p21 minimal promoter; [5]): 2-3 fold
Bla staining at 15 min (p21 minimal promoter; [6]): 20-25%
fold-ind. at 15 min. (Bla) (p21 minimal promoter; [6]): 4-5 fold
Bla staining at 15 min (p21 minimal promoter; [7]): 25-30%
fold-ind. at 15 min. (Bla) (p21 minimal promoter; [7]): 2 fold
Bla staining at 15 min (p21 minimal promoter; [8]): 40%
fold-ind. at 15 min. (Bla) (p21 minimal promoter; [8]): 1.3 fold
Bla staining at 15 min (p21 minimal promoter; [9]): 40%
fold-ind. at 15 min. (Bla) (p21 minimal promoter; [9]): 1 fold

CC(/C=C/C(=O)NO)=C\[C@@H](C)C(=O)c1ccc(N(C)C)cc1 [TSA, Trichostatin A]
remission from cell cycle arrest (HeLa cells): complete remission from cell cycle arrest
RLU/mg (CMV promoter; Table 1, 1 μg CMV-BLA + 3 μL F, control plasmid not given): 8986 RLU/mg
RLU/mg (CMV promoter; Table 1, 1 μg p21m-BLA + 3 μL F, control plasmid pCMV-Luc or pRSV-Luc, not specified): 52035 RLU/mg
RLU/mg (CMV promoter; Table 1, 1 μg p21m-BLA + 5 μL F, control plasmid not given): 29022.4 RLU/mg
RLU/mg (CMV promoter; Table 2, 2 μg CMV-BLA + 6 μL F + CMV-luc): 13085.6 RLU/mg
RLU/mg (CMV promoter; Table 2, 2 μg p21BLA + 6 μL F + CMV-luc): 105942 RLU/mg
RLU/mg (RSV promoter; 1 μg CMV-BLA + 3 μL F + RSV-luc): 7964.46 RLU/mg
RLU/mg (RSV promoter; 1 μg p21m-BLA + 3 μL F + RSV-luc): 24437.8 RLU/mg
RLU/mg (RSV promoter; 2 μg CMV-BLA + 6 μL F + RSV-luc): 4972 RLU/mg
RLU/mg (RSV promoter; 2 μg p21m-BLA + 6 μL F + RSV-luc): 29989.4 RLU/mg
% Blue cells (p21 minimal promoter; Table 1, 400 nM, 12 hours induction, 1 μg p21m-BLA + 3 μL F): 1%
% Blue cells (p21 minimal promoter; Table 1, 400 nM, 12 hours induction, 1 μg p21m-BLA + 5 μL F): <1%
% Blue cells (p21 minimal promoter; Table 1, 400 nM, 12 hours induction, 2 μg p21m-BLA + 6 μL F): 1%
% Blue cells (p21 minimal promoter; Table 1, 400 nM, 12 hours induction, 2 μg p21m-BLA + 10 μL F): <1%
% Blue cells (p21 minimal promoter; Table 2, 400 nM, 12 hours induction, 1 μg p21m-BLA + 3 μL F): 5%
% Blue cells (p21 minimal promoter; Table 2, 400 nM, 12 hours induction, 2 μg p21m-BLA + 6 μL F): 5%
% Blue cells (p21 minimal promoter; Table 2, 400 nM, 12 hours, 1 μg p21m-BLA + 3 μL F + CMV-luc): 4%
% Blue cells (p21 minimal promoter; Table 2, 400 nM, 12 hours, 1 μg p21m-BLA + 3 μL F + RSV-luc): 5%
% Blue cells (p21 minimal promoter; Table 2, 400 nM, 12 hours, 2 μg p21BLA + 6 μL F + CMV-luc): 4%
% Blue cells (p21 minimal promoter; Table 2, 400 nM, 12 hours, 2 μg p21m-BLA + 6 μL F + RSV-luc): 4%
% Blue cells (p21 minimal promoter; [1]): 2-3%
% Blue cells (p21 minimal promoter; [2]): 10%
% Blue cells (p21 minimal promoter; [3]): 10%
